Reference: the supplement of paper PMC4862054

Assays:
Conditions in all cases: incubation time: 72 h
CAL-148 [1] = assay: drug sensitivity score (DSS), CellTiter-Glo (DSS (AUC-based score)); higher = stronger drug effect (viability inhibition or cytotoxicity); extreme values may be limits of the assay
In short: (§1)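 After 72 h of incubation in 384-well plates with compound at 5 concentrations (10-fold steps, 10,000-fold range set per compound), breast cancer cell lines seeded in 20 µl suspension were read first for CellTox Green fluorescence at 485/520 nm. CellTiter-Glo luminescence was measured next, after 10 min at room temperature. Normalisation on each plate used 0.1 % DMSO and a positive kill control, and the drug sensitivity score was computed from the area under the fitted dose-response curve.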

HCC1143 [2] = assay: as above
In short: as §1

HCC1937 [3] = assay: as above
In short: as §1

HDQ-P1 [4] = assay: as above
In short: as §1

MDA-MB-231 [5] = assay: as above
In short: as §1

MDA-MB-453 [6] = assay: as above
In short: as §1

MFM-223 [7] = assay: as above
In short: as §1

BT-474 = assay: drug sensitivity score (DSS), CellTox Green (DSS (AUC-based score)); higher = stronger drug effect (viability inhibition or cytotoxicity); extreme values may be limits of the assay
In short: as §1

BT-549 = assay: as above
In short: as §1

CAL-120 = assay: as above
In short: as §1

CAL-148 [8] = assay: as above
In short: as §1

CAL-51 = assay: as above
In short: as §1

CAL-85-1 = assay: as above
In short: as §1

DU-4475 = assay: as above
In short: as §1

HCC1143 [9] = assay: as above
In short: as §1

HCC1599 = assay: as above
In short: as §1

HCC1937 [10] = assay: as above
In short: as §1

HDQ-P1 [11] = assay: as above
In short: as §1

Hs578T = assay: as above
In short: as §1

MCF-10A = assay: as above
In short: as §1

MDA-MB-231 [12] = assay: as above
In short: as §1

MDA-MB-436 = assay: as above
In short: as §1

MDA-MB-453 [13] = assay: as above
In short: as §1

MDA-MB-468 = assay: as above
In short: as §1

MFM-223 [14] = assay: as above
In short: as §1

`CCCc1cc(C)[nH]c(=O)c1CNC(=O)c1cc(-c2ccnc(N3CCN(C)CC3)c2)cc2c1cnn2C(C)C` [GSK343] showed a drug sensitivity score (CAL-148 [1]) of 0.724, a drug sensitivity score (HCC1143 [2]) of 0 and a drug sensitivity score (HCC1937 [3]) of 0. It also gave a drug sensitivity score (HDQ-P1 [4]) of 0, a drug sensitivity score (MDA-MB-231 [5]) of 4.65 and a drug sensitivity score (MDA-MB-453 [6]) of 6.37. It also gave a drug sensitivity score (MFM-223 [7]) of 2.85, a drug sensitivity score (BT-474) of 5.28 and a drug sensitivity score (BT-549) of 0. For the same molecule, the drug sensitivity score (CAL-120) was 0, the drug sensitivity score (CAL-148 [8]) was 0 and the drug sensitivity score (CAL-51) was 0. It also gave a drug sensitivity score (CAL-85-1) of 2.18, a drug sensitivity score (DU-4475) of 0 and a drug sensitivity score (HCC1143 [9]) of 0. It also gave a drug sensitivity score (HCC1599) of 1.18, a drug sensitivity score (HCC1937 [10]) of 0 and a drug sensitivity score (HDQ-P1 [11]) of 0. It also gave a drug sensitivity score (Hs578T) of 4.43, a drug sensitivity score (MCF-10A) of 0 and a drug sensitivity score (MDA-MB-231 [12]) of 7.22. For the same molecule, the drug sensitivity score (MDA-MB-436) was 0, the drug sensitivity score (MDA-MB-453 [13]) was 6.47 and the drug sensitivity score (MDA-MB-468) was 0. The drug sensitivity score (MFM-223 [14]) was 7.62.
Work on `COc1cc2c(cc1-c1c(C)noc1C)ncc1[nH]c(=O)n([C@H](C)c3ccccn3)c12` [I-BET151] yielded a drug sensitivity score (CAL-148 [1]) of 0, a drug sensitivity score (HCC1143 [2]) of 1.94 and a drug sensitivity score (HCC1937 [3]) of 2.32. It also gave a drug sensitivity score (HDQ-P1 [4]) of 3.02, a drug sensitivity score (MDA-MB-231 [5]) of 2.63 and a drug sensitivity score (MDA-MB-453 [6]) of 7.96. It also gave a drug sensitivity score (MFM-223 [7]) of 6.13, a drug sensitivity score (BT-474) of 0 and a drug sensitivity score (BT-549) of 0. For the same molecule, the drug sensitivity score (CAL-120) was 0, the drug sensitivity score (CAL-148 [8]) was 0 and the drug sensitivity score (CAL-51) was 4.63. The drug sensitivity score (CAL-85-1) was 5.11, the drug sensitivity score (DU-4475) was 0.559 and the drug sensitivity score (HCC1143 [9]) was 0. For the same molecule, the drug sensitivity score (HCC1599) was 0, the drug sensitivity score (HCC1937 [10]) was 0 and the drug sensitivity score (HDQ-P1 [11]) was 5.77. For the same molecule, the drug sensitivity score (Hs578T) was 0, the drug sensitivity score (MCF-10A) was 2.02 and the drug sensitivity score (MDA-MB-231 [12]) was 1.07. For the same molecule, the drug sensitivity score (MDA-MB-436) was 1.57, the drug sensitivity score (MDA-MB-453 [13]) was 0 and the drug sensitivity score (MDA-MB-468) was 5.63. For the same molecule, the drug sensitivity score (MFM-223 [14]) was 0.
With `CC(C)n1nc(-c2ccc3oc(N)nc3c2)c2c(N)ncnc21` [INK128] the drug sensitivity score (CAL-148 [1]) was 14.7, the drug sensitivity score (HCC1143 [2]) was 13 and the drug sensitivity score (HCC1937 [3]) was 8.72. The drug sensitivity score (HDQ-P1 [4]) was 13.5, the drug sensitivity score (MDA-MB-231 [5]) was 11.2 and the drug sensitivity score (MDA-MB-453 [6]) was 14.8. The drug sensitivity score (MFM-223 [7]) was 15.5, the drug sensitivity score (BT-474) was 0 and the drug sensitivity score (BT-549) was 0. The drug sensitivity score (CAL-120) was 0, the drug sensitivity score (CAL-148 [8]) was 8.35 and the drug sensitivity score (CAL-51) was 1.08. It also gave a drug sensitivity score (CAL-85-1) of 0, a drug sensitivity score (DU-4475) of 0 and a drug sensitivity score (HCC1143 [9]) of 0. For the same molecule, the drug sensitivity score (HCC1599) was 0, the drug sensitivity score (HCC1937 [10]) was 0 and the drug sensitivity score (HDQ-P1 [11]) was 0. For the same molecule, the drug sensitivity score (Hs578T) was 10.3, the drug sensitivity score (MCF-10A) was 0 and the drug sensitivity score (MDA-MB-231 [12]) was 0. It also gave a drug sensitivity score (MDA-MB-436) of 0, a drug sensitivity score (MDA-MB-453 [13]) of 0 and a drug sensitivity score (MDA-MB-468) of 0. It also gave a drug sensitivity score (MFM-223 [14]) of 3.35.
`NC1(c2ccc(-c3nc4ccn5c(=O)[nH]nc5c4cc3-c3ccccc3)cc2)CCC1` [MK-2206] was tested, and the drug sensitivity score (CAL-148 [1]) was 1.35, the drug sensitivity score (HCC1143 [2]) was 0 and the drug sensitivity score (HCC1937 [3]) was 0. It also gave a drug sensitivity score (HDQ-P1 [4]) of 0, a drug sensitivity score (MDA-MB-231 [5]) of 0 and a drug sensitivity score (MDA-MB-453 [6]) of 5.41. It also gave a drug sensitivity score (MFM-223 [7]) of 1.78, a drug sensitivity score (BT-474) of 0 and a drug sensitivity score (BT-549) of 0. For the same molecule, the drug sensitivity score (CAL-120) was 0, the drug sensitivity score (CAL-148 [8]) was 3.64 and the drug sensitivity score (CAL-51) was 0. For the same molecule, the drug sensitivity score (CAL-85-1) was 0, the drug sensitivity score (DU-4475) was 0 and the drug sensitivity score (HCC1143 [9]) was 0. The drug sensitivity score (HCC1599) was 0, the drug sensitivity score (HCC1937 [10]) was 0 and the drug sensitivity score (HDQ-P1 [11]) was 0. It also gave a drug sensitivity score (Hs578T) of 0, a drug sensitivity score (MCF-10A) of 0 and a drug sensitivity score (MDA-MB-231 [12]) of 0. It also gave a drug sensitivity score (MDA-MB-436) of 0, a drug sensitivity score (MDA-MB-453 [13]) of 0 and a drug sensitivity score (MDA-MB-468) of 0. For the same molecule, the drug sensitivity score (MFM-223 [14]) was 0.
`N[C@@H](Cc1ccc(N(CCCl)CCCl)cc1)C(=O)O` [Melphalan] showed a drug sensitivity score (CAL-148 [1]) of 19.5, a drug sensitivity score (HCC1143 [2]) of 13.9 and a drug sensitivity score (HCC1937 [3]) of 20.2. It also gave a drug sensitivity score (HDQ-P1 [4]) of 19.5, a drug sensitivity score (MDA-MB-231 [5]) of 20.7 and a drug sensitivity score (MDA-MB-453 [6]) of 21.3. The drug sensitivity score (MFM-223 [7]) was 19.3, the drug sensitivity score (BT-474) was 18.1 and the drug sensitivity score (BT-549) was 13.4. It also gave a drug sensitivity score (CAL-120) of 9.72, a drug sensitivity score (CAL-148 [8]) of 18.5 and a drug sensitivity score (CAL-51) of 21.7. It also gave a drug sensitivity score (CAL-85-1) of 18.1, a drug sensitivity score (DU-4475) of 11.5 and a drug sensitivity score (HCC1143 [9]) of 7.18. The drug sensitivity score (HCC1599) was 11.8, the drug sensitivity score (HCC1937 [10]) was 15.4 and the drug sensitivity score (HDQ-P1 [11]) was 18.4. For the same molecule, the drug sensitivity score (Hs578T) was 12.4, the drug sensitivity score (MCF-10A) was 19.3 and the drug sensitivity score (MDA-MB-231 [12]) was 23.9. It also gave a drug sensitivity score (MDA-MB-436) of 8.42, a drug sensitivity score (MDA-MB-453 [13]) of 16.9 and a drug sensitivity score (MDA-MB-468) of 19.7. For the same molecule, the drug sensitivity score (MFM-223 [14]) was 16.5.
`CO[C@H](C(=O)[C@@H](O)[C@@H](C)O)[C@@H]1Cc2cc3cc(O[C@H]4C[C@@H](O[C@@H]5C[C@@H](O)[C@H](O)[C@@H](C)O5)[C@H](O)[C@@H](C)O4)c(C)c(O)c3c(O)c2C(=O)[C@H]1O[C@H]1C[C@@H](O[C@@H]2C[C@@H](O)[C@@H](O[C@@H]3C[C@](C)(O)[C@H](O)[C@@H](C)O3)[C@@H](C)O2)[C@H](O)[C@@H](C)O1` [Plicamycin] was tested, and the drug sensitivity score (CAL-148 [1]) was 4.43, the drug sensitivity score (HCC1143 [2]) was 4.54 and the drug sensitivity score (HCC1937 [3]) was 4.37. It also gave a drug sensitivity score (HDQ-P1 [4]) of 2.83, a drug sensitivity score (MDA-MB-231 [5]) of 5.67 and a drug sensitivity score (MDA-MB-453 [6]) of 3.11. The drug sensitivity score (MFM-223 [7]) was 1.97, the drug sensitivity score (BT-474) was 0 and the drug sensitivity score (BT-549) was 0. It also gave a drug sensitivity score (CAL-120) of 0, a drug sensitivity score (CAL-148 [8]) of 0 and a drug sensitivity score (CAL-51) of 7.69. It also gave a drug sensitivity score (CAL-85-1) of 1.48, a drug sensitivity score (DU-4475) of 0 and a drug sensitivity score (HCC1143 [9]) of 0. The drug sensitivity score (HCC1599) was 0, the drug sensitivity score (HCC1937 [10]) was 0 and the drug sensitivity score (HDQ-P1 [11]) was 0. The drug sensitivity score (Hs578T) was 1.28, the drug sensitivity score (MCF-10A) was 6.07 and the drug sensitivity score (MDA-MB-231 [12]) was 0. For the same molecule, the drug sensitivity score (MDA-MB-436) was 0, the drug sensitivity score (MDA-MB-453 [13]) was 1.33 and the drug sensitivity score (MDA-MB-468) was 9.57. It also gave a drug sensitivity score (MFM-223 [14]) of 0.
